Laboratory results published in PubChem BioAssay (NCI).
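48-hour exposure; five concentrations; linearly interpolated endpoints. TGI: concentration producing complete growth inhibition.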

Tests used:
Assay in all cases: NCI-60 cell line screen, 48 h
SK-MEL-28 melanoma = system: SK-MEL-28 melanoma
KM20L2 colon = system: KM20L2 colon
HT29 colon = system: HT29 colon
LOX IMVI melanoma = system: LOX IMVI melanoma
SK-MEL-5 melanoma = system: SK-MEL-5 melanoma
LXFL 529 NSCLC = system: LXFL 529 NSCLC
M14 melanoma = system: M14 melanoma
HCT-116 colon = system: HCT-116 colon
786-0 renal = system: 786-0 renal
U251 CNS = system: U251 CNS
DLD-1 colon = system: DLD-1 colon
SR leukemia = system: SR leukemia
MOLT-4 leukemia = system: MOLT-4 leukemia
RXF-631 renal = system: RXF-631 renal
KM12 colon = system: KM12 colon
IGROV1 ovarian = system: IGROV1 ovarian
SF-295 CNS = system: SF-295 CNS
HL-60(TB) leukemia = system: HL-60(TB) leukemia
OVCAR-4 ovarian = system: OVCAR-4 ovarian
SW-620 colon = system: SW-620 colon
HOP-62 NSCLC = system: HOP-62 NSCLC
NCI-H460 lung = system: NCI-H460 lung
TK-10 renal = system: TK-10 renal
NCI-H522 lung = system: NCI-H522 lung
UACC-62 melanoma = system: UACC-62 melanoma
SK-MEL-2 melanoma = system: SK-MEL-2 melanoma
NCI-H226 lung = system: NCI-H226 lung
SNB-75 CNS = system: SNB-75 CNS
COLO 205 colon = system: COLO 205 colon
A549 NSCLC = system: A549 NSCLC
CCRF-CEM leukemia = system: CCRF-CEM leukemia
OVCAR-3 ovarian = system: OVCAR-3 ovarian
HOP-18 NSCLC = system: HOP-18 NSCLC
CAKI-1 renal = system: CAKI-1 renal
M19-MEL melanoma = system: M19-MEL melanoma
OVCAR-8 ovarian = system: OVCAR-8 ovarian
HOP-92 NSCLC = system: HOP-92 NSCLC
UACC-257 melanoma = system: UACC-257 melanoma
K-562 leukemia = system: K-562 leukemia
SF-268 CNS = system: SF-268 CNS
NCI-H23 lung = system: NCI-H23 lung
SNB-78 CNS = system: SNB-78 CNS
HCT-15 colon = system: HCT-15 colon
UO-31 renal = system: UO-31 renal
SN12C renal = system: SN12C renal
SNB-19 CNS = system: SNB-19 CNS
SK-OV-3 ovarian = system: SK-OV-3 ovarian
MALME-3M melanoma = system: MALME-3M melanoma
OVCAR-5 ovarian = system: OVCAR-5 ovarian
DMS 114 small cell lung = system: DMS 114 small cell lung
SF-539 CNS = system: SF-539 CNS
RPMI-8226 leukemia = system: RPMI-8226 leukemia
ACHN renal = system: ACHN renal
HCC-2998 colon = system: HCC-2998 colon
RXF 393 renal = system: RXF 393 renal
EKVX NSCLC = system: EKVX NSCLC
A498 renal = system: A498 renal

Measured: TGI

COc1ccc(N2C(=O)/C(=C/c3ccc(N(CCC#N)CCC#N)cc3C)N=C2/C=C\c2ccccc2)cc1
56.9 µM: SF-539 CNS
75 µM: UO-31 renal
69.6 µM: HOP-62 NSCLC
40 µM: KM20L2 colon
60.7 µM: UACC-62 melanoma
92 µM: COLO 205 colon
not listed: HCC-2998 colon | RXF 393 renal | EKVX NSCLC | A498 renal
> 100 µM: all other assays above

CCc1ccccc1NC(=O)C1=C(C)NC(C)=C(C(=O)Nc2ccccc2CC)C1c1cccc([N+](=O)[O-])c1
62 µM: HCC-2998 colon
88.7 µM: HL-60(TB) leukemia
97.8 µM: NCI-H522 lung
93.8 µM: A498 renal
62.8 µM: HOP-92 NSCLC
not listed: HCT-116 colon | SR leukemia | UACC-62 melanoma | HOP-18 NSCLC | HCT-15 colon
> 100 µM: all other assays above

Cc1ccc(N=Nc2c(C)nn(-c3ccccc3)c2-c2ccccc2)c(Br)c1
not listed: SK-MEL-5 melanoma | U251 CNS | COLO 205 colon | NCI-H23 lung | SNB-78 CNS | OVCAR-5 ovarian | DMS 114 small cell lung | RPMI-8226 leukemia | RXF 393 renal
> 100 µM: all other assays above
